How the values were obtained:
[1] = RNA encapsulation efficiency (modified Quant-iT RiboGreen assay) and loading; assay type: physicochemical; conditions: for Encapsulation efficiency (%) / Small molecule drug mass % / siRNA mass %: FxNP; for siRNA encapsulation (in words): drugs that were not colloid formers
Excerpt: (§1) [NT] antisense (SEQ ID NO: 2): [NT] where “d” denotes a DNA base), siFLuc-2 (sense (SEQ ID NO: 3): [NT] antisense (SEQ ID NO: 4): [NT] where “d” denotes a DNA base and “m” indicates a 2'-O-methyl RNA base), sinLuc (sense (SEQ ID NO: 5): [NT] antisense SEQ ID NO: 6): [NT] where “d” denotes a DNA base), […]1 (sense (SEQ ID NO: 7): [NT] antisense (SEQ ID NO: 8): [NT] where “d” denotes a DNA base and “m” indicates a 2'-O-methyl RNA base), siNT (sense (SEQ ID NO: 9): [NT] antisense (SEQ ID NO: 10): [NT] where “d” denotes a DNA base and “m” indicates a 2'-O-methyl RNA base), mFLuc (EZ Cap Firefly Luciferase mRNA (5-moUTP), ApexBio), rRNA or RNA from Torula utilis yeast (T.U. RNA) was diluted in citrate buffer (50 or 25 mM, pH 4), malate buffer (25 mM, pH 4.0) or acetate buffer (25 mM, pH 4.0). A lipid/drug mix concentration of 5.5 mM was used with a total flow rate of 9 mL/min at a 3:1 ratio of aqueous to organic phase. […] After formulation, buffer exchange into PBS or Tris-buffered saline (TBS; pH 8.5) was performed using Amicon Ultra-4 centrifugal filters (molecular weight cut-off 10 kDa). Hydrodynamic diameter, polydispersity index (PDI), and scattering intensity were measured by dynamic light scattering (DLS) using a DynaPro Plate Reader II (Wyatt Technologies). The instrument was configured with a 60 mW 830 nm laser and a detector angle of 158°. A 25 μL sample of each formulation was pipetted into each well of a 384-well plate and measured with 20 acquisitions per sample at 25° C. […] Quant-iT RiboGreen reagent was added, and fluorescence intensity was quantified using a Tecan Infinite […] plate reader.

[2] = Zeta potential (Malvern Zetasizer); assay type: physicochemical; conditions: FxNP
Experimental: Zeta potential was measured by diluting FXNPs in phosphate to an ion concentration of 1 mM and using a Malvern Zetasizer Nano ZS instrument.

[3] = Hydrodynamic diameter and polydispersity index by dynamic light scattering; assay type: physicochemical; conditions: FxNP
Excerpt: as §1

[4] = ionizable compound (fulvestrant analog); cited from earlier work

| Structure (SMILES) | Encapsulation efficiency (%) ([1]; siFLuc, DOPC) | Small molecule drug mass % ([1]; siFLuc, DOPC) [%] | siRNA mass % ([1]; siFLuc, DOPC) [%] | Encapsulation efficiency (%) ([1]; siFLuc, DSPC) | Small molecule drug mass % ([1]; siFLuc, DSPC) [%] | siRNA mass % ([1]; siFLuc, DSPC) [%] | Encapsulation efficiency (%) ([1]; sinLuc, DOPC) | Small molecule drug mass % ([1]; sinLuc, DOPC) [%] | siRNA mass % ([1]; sinLuc, DOPC) [%] | Zeta potential (mV) ([2]; siFLuc, DOPC) | Zeta potential (mV) ([2]; siFLuc, DSPC) | Zeta potential (mV) ([2]; sinLuc, DOPC) | Hydrodynamic diameter (nm) ([3]; siFLuc, DOPC) | PDI ([3]; siFLuc, DOPC) | Hydrodynamic diameter (nm) ([3]; siFLuc, DSPC) | PDI ([3]; siFLuc, DSPC) | Hydrodynamic diameter (nm) ([3]; sinLuc, DOPC) | PDI ([3]; sinLuc, DOPC) | pKa [4] | siRNA encapsulation (in words) [1] | also measured |
| --- | --- | --- | --- | --- | --- | --- | --- | --- | --- | --- | --- | --- | --- | --- | --- | --- | --- | --- | --- | --- | --- |
| CC12CCC3c4ccc(O)cc4CC(CCCCCCCCCS(=O)(CCCC(F)(F)C(F)(F)F)=NC(=O)CN4CCOCC4)C3C1CCC2O (centres unmarked) [7a] | 58.7 | 56.7 | 3.0 | 69.9 | 56.3 | 3.6 | 79.5 | 56.1 | 4.0 | −11.27 | −12.97 | −11.80 | 245.9 | 0.035 | 149.3 | 0.022 | 243.5 | 0.014 | 5.1 |  |  |
| CC12CCC3c4ccc(O)cc4CC(CCCCCCCCCS(=O)(CCCC(F)(F)C(F)(F)F)=NC(=O)Cn4ccnc4)C3C1CCC2O (centres unmarked) [7b] | 81.7 | 55.4 | 4.2 | 85.5 | 55.2 | 4.4 | 84.9 | 55.3 | 4.4 | −7.61 | −12.50 | −11.53 | 289.8 | 0.003 | 141.0 | 0.019 | 296.2 | 0.012 | 5.4 |  |  |
| CC12CCC3c4ccc(O)cc4CC(CCCCCCCCCS(=O)(CCCC(F)(F)C(F)(F)F)=NC(=O)CCn4ccnc4)C3C1CCC2O (centres unmarked) [7c] | 87.5 | 55.7 | 4.4 | 89.3 | 55.6 | 4.5 | 73.7 | 56.1 | 3.8 | −8.02 | −10.15 | −10.97 | 159.4 | 0.043 | 136.0 | 0.017 | 180.1 | 0.072 | 5.5 |  |  |
| CC12CCC3c4ccc(O)cc4CC(CCCCCCCCCS(=O)(CCCC(F)(F)C(F)(F)F)=NC(=O)CCN4CCOCC4)C3C1CCC2O (centres unmarked) [7d] | 80.3 | 56.5 | 4.0 | 88.3 | 56.3 | 4.4 | 76.4 | 56.6 | 3.8 | −8.00 | −11.83 | −14.27 | 199.0 | 0.066 | 154.9 | 0.036 | 224.8 | 0.093 | 5.7 |  |  |
| CC12CCC3c4ccc(O)cc4CC(CCCCCCCCCS(=O)(CCCC(F)(F)C(F)(F)F)=NC(=O)CN4CCCCC4)C3C1CCC2O (centres unmarked) [7e] | 90.8 | 55.7 | 4.6 | 90.8 | 55.7 | 4.6 | 89.7 | 55.7 | 4.5 | −2.88 | −11.13 | −7.23 | 214.2 | 0.068 | 132.6 | 0.041 | 215.1 | 0.066 | 6.4 |  |  |
| CN(C)CC(=O)N=S(=O)(CCCCCCCCCC1Cc2cc(O)ccc2C2CCC3(C)C(O)CCC3C12)CCCC(F)(F)C(F)(F)F (centres unmarked) [7f] | 91.3 | 54.3 | 4.8 | 94.8 | 54.2 | 4.9 | 92.4 | 54.3 | 4.8 | −5.09 | −10.01 | −3.97 | 155.5 | 0.041 | 147.8 | 0.075 | 161.0 | 0.039 | 7.0 |  | nanoparticle formation with RNA cargos of varying molecular weight ([1]; siRNA, T.U. RNA, rRNA, mRNA): form nanoparticles encapsulating a range of RNA cargos |
| CC12CCC3c4ccc(O)cc4CC(CCCCCCCCCS(=O)(CCCC(F)(F)C(F)(F)F)=NC(=O)C[N+](C)(C)C)C3C1CCC2O (centres unmarked) [7l] |  |  |  | 87.6 | 54.9 | 4.5 |  |  |  |  | −2.05 |  |  |  | 539.2 | Multimodal |  |  |  |  |  |
| CN(C)CCCN1c2ccccc2Sc2ccc(Cl)cc21 [chlorpromazine, reference compound] |  |  |  |  |  |  |  |  |  |  |  |  |  |  |  |  |  |  |  | did not encapsulate siRNA in nanoparticles or encapsulated siRNA at low efficiency |  |
| CC[C@H]1CN2CCc3cc(OC)c(OC)cc3[C@@H]2C[C@@H]1C[C@H]1NCCc2cc(OC)c(OC)cc21 [emetine, reference compound] |  |  |  |  |  |  |  |  |  |  |  |  |  |  |  |  |  |  |  | did not encapsulate siRNA in nanoparticles or encapsulated siRNA at low efficiency |  |
| CNCCC=C1c2ccccc2CCc2ccccc21 [nortriptyline, reference compound] |  |  |  |  |  |  |  |  |  |  |  |  |  |  |  |  |  |  |  | did not encapsulate siRNA in nanoparticles or encapsulated siRNA at low efficiency |  |
| CN[C@H]1CC[C@@H](c2ccc(Cl)c(Cl)c2)c2ccccc21 [sertraline, reference compound] |  |  |  |  |  |  |  |  |  |  |  |  |  |  |  |  |  |  |  | did not encapsulate siRNA in nanoparticles or encapsulated siRNA at low efficiency |  |
